In patent EP4635499A1, “PHARMACEUTICAL COMPOSITION FOR VASCULAR MALFORMATIONS AND METHOD FOR CURING VASCULAR MALFORMATIONS” (ARTham Therapeutics Inc., priority 2022, dated 2024):
“And” between values parts separate entries of the source, which are not always exact repeats. Equal values may be shown once.

Key:
[1] = existing therapeutic agents for vascular malformations; NPL 2, NPL 3; cited from earlier work
[2] = system: vascular malformation patients; assay: Randomized double-blind study in vascular malformation patients: response rate and volume change of target lesion measured by MRI; format: in vivo, human; details: oral; for RESPONSE RATE AT 12 WEEKS OF ADMINISTRATION: once a day after breakfast, week 12, response = complete + partial (at least 20% reduction in target lesion volume, MRI); for VOLUME CHANGE (AVERAGE VALUE) OF TARGET LESION AT 24 WEEKS OF ADMINISTRATION / RESPONSE RATE AT 24 WEEKS OF ADMINISTRATION: once a day, week 24; for VOLUME CHANGE (AVERAGE VALUE) OF TARGET LESION AT 24 WEEKS OF ADMINISTRATION: MRI; for RESPONSE RATE AT 24 WEEKS OF ADMINISTRATION: primary endpoint
Experimental: The efficacy was confirmed in a randomized double-blind study in vascular malformation patients. A serabelisib-containing dry syrup (contained 200 mg of serabelisib in 1 g) was administered orally for 24 weeks once a day after breakfast at an adult serabelisib dose of 50 mg or an adult serabelisib dose of 100 mg. For the pediatric patients, the administered dose was made the dose calculated based on body surface area conversion according to the Crawford formula for each of the adult doses. The primary endpoint was the response rate based on the volume change (measured by MRI) of the target lesion at the end of 24 weeks of administration. In the analysis of the primary endpoint for evaluating efficacy, a complete response was defined as the disappearance of the target lesion and a partial response was defined as an at least 20% reduction in the volume of the target lesion in comparison to that at the time of the screening test. The 95% confidence interval for the response rate (the sum of complete responses and partial responses as a percentage of the total) based on the change in target lesion volume (measured by MRI) between prior to administration and the time point of completion of 24 weeks of administration, was calculated using the Clopper-Pearson method, and whether its lower limit exceeded 12.5% was checked. For the secondary endpoint, the […] based on the change in target lesion volume (measured by MRI) at the time point of completion of 12 weeks of administration was evaluated. With respect to blood vessel malformation lesions, cystic components of lymphatic malformations, lymphedema, lymph fluid, and lymphorrhea (including also intraosseous, extraosseous, and subcutaneous), which are components of vascular malformations, the target lesion detected using the T2 fat-suppressed image was selected for the target lesion and its volume was measured.

[3] = system: vascular malformation patients; assay: Randomized double-blind study in vascular malformation patients: pain severity by Visual Analogue Scale (VAS); format: in vivo, human; details: for VAS AVERAGE VALUE / VAS MEDIAN VALUE: scale 0-100
Experimental: The efficacy was confirmed in a randomized double-blind study in vascular malformation patients. A serabelisib-containing dry syrup (contained 200 mg of serabelisib in 1 g) was administered orally for 24 weeks once a day after breakfast at an adult serabelisib dose of 50 mg or an adult serabelisib dose of 100 mg. For the pediatric patients, the administered dose was made the dose calculated based on body surface area conversion according to the Crawford formula for each of the adult doses. The primary endpoint was the response rate based on the volume change (measured by MRI) of the target lesion at the end of 24 weeks of administration. The severity of pain at the baseline, week 4 of administration, week 12 of administration, and week 24 of administration was evaluated (using VAS). A 10-cm straight line was drawn on the recording paper; the left end was defined as 0 and the right end was defined as 100; "0" was assigned to a condition of "pain completely absent" and "100" was assigned to a condition of "the worst pain, or a more severe pain cannot be imagined"; and inquiry was made as to where the current pain level was on the straight line and this was recorded. It was also recorded when the information about a subject was provided by someone else who was not the subject. In addition, the subjects were classified into under 15 years and 15 years and over for the age when consent was obtained, and recording paper appropriate for each age group was used.

[4] = system: vascular malformation patients; assay: Randomized double-blind study in vascular malformation patients: hyperglycemia side effect diagnosed by a physician; format: in vivo, human; details: 50 mg or 100 mg serabelisib once a day for 24 weeks; 35 patients; diagnosed by a physician based on test values such as a blood glucose value
From the text: According to an embodiment, the side effects are hyperglycemia and hypercreatinemia. According to an embodiment, the side effect is hyperglycemia. In the present Description, "hyperglycemia" is an adverse event (side effect) associated with the pharmacological action of a drug and is diagnosed by a physician based on test values such as the blood glucose level.
The efficacy was confirmed in a randomized double-blind study in vascular malformation patients. A serabelisib-containing dry syrup (contained 200 mg of serabelisib in 1 g) was administered orally for 24 weeks once a day after breakfast at an adult serabelisib dose of 50 mg or an adult serabelisib dose of 100 mg. For the pediatric patients, the administered dose was made the dose calculated based on body surface area conversion according to the Crawford formula for each of the adult doses. The primary endpoint was the response rate based on the volume change (measured by MRI) of the target lesion at the end of 24 weeks of administration.
• (1) The study is discontinued when a test value of 140 mg/dL or higher is observed for the blood glucose level (fasting) in the clinical test performed at each visit. • (2) The study is discontinued when the clinical tests performed at each visit meets all of the following criteria stipulated for each age group.

Question: For `Cc1nc(NC(=O)N2CCC[C@H]2C(N)=O)sc1-c1ccnc(C(C)(C)C(F)(F)F)c1` [Alpelisib, alpelisib], which known side effects [1] is on record?
Answer: The known side effects was “hyperglycemia”.

Question: For `Nc1nc2cc(-c3ccc4ncc(C(=O)N5CCOCC5)n4c3)ccc2o1` [ART-001, serabelisib], which “RESPONSE RATE AT 12 WEEKS OF ADMINISTRATION” value ([2]; 50 mg serabelisib (adult dose) as dry syrup, 17 subjects) is on record?
Answer: The value was 0% (0).

Question: And the “VOLUME CHANGE (AVERAGE VALUE) OF TARGET LESION AT 24 WEEKS OF ADMINISTRATION” value ([2]; 50 mg serabelisib)?
Answer: Its value is -2.3%.

Question: What about the “RESPONSE RATE AT 24 WEEKS OF ADMINISTRATION” value ([2]; 50 mg serabelisib, 17 subjects, 95% confidence interval 10.3% - 56.0% (Clopper-Pearson)) of the same molecule?
Answer: Its value is 29.4% (6) and 29.4% (5).

Question: And the “RESPONSE RATE AT 24 WEEKS OF ADMINISTRATION” value ([2]; 50 mg serabelisib, 17 subjects, 95% confidence interval 10.3% - 56.0% (Clopper-Pearson), listed as serabelisib)?
Answer: Its value is 29.4%.

Question: And the “RESPONSE RATE AT 12 WEEKS OF ADMINISTRATION” value ([2]; 100 mg serabelisib (adult dose) as dry syrup, 18 subjects)?
Answer: The value was 16.7% (3).

Question: What about the “VOLUME CHANGE (AVERAGE VALUE) OF TARGET LESION AT 24 WEEKS OF ADMINISTRATION” value ([2]; 100 mg serabelisib) of the same molecule?
Answer: Its value is -12.6%.

Question: And the “RESPONSE RATE AT 24 WEEKS OF ADMINISTRATION” value ([2]; 100 mg serabelisib, 18 subjects, 95% confidence interval 13.3% - 59.0% (Clopper-Pearson))?
Answer: Its value is 33.3% (6).

Question: And the “RESPONSE RATE AT 24 WEEKS OF ADMINISTRATION” value ([2]; 100 mg serabelisib, 18 subjects, 95% confidence interval 13.3% - 59.0% (Clopper-Pearson), listed as serabelisib)?
Answer: Its value is 33.3%.

Question: And the “VAS AVERAGE VALUE” ([3]; 50 mg administration group, WEEK 4 OF ADMINISTRATION, baseline average 29.4)?
Answer: The value was 20.6.

Question: And the “VAS MEDIAN VALUE” ([3]; 50 mg administration group, WEEK 4 OF ADMINISTRATION, baseline median 16.0)?
Answer: Its value is 6.0.

Question: What about the “VAS AVERAGE VALUE” ([3]; 50 mg administration group, WEEK 12 OF ADMINISTRATION, baseline average 29.4) of the same molecule?
Answer: The value was 21.2.

Question: What about the “VAS AVERAGE VALUE” ([3]; 50 mg administration group, WEEK 24 OF ADMINISTRATION, baseline average 29.4) of the same molecule?
Answer: The value was 16.1.

Question: What about the “VAS MEDIAN VALUE” ([3]; 50 mg administration group, WEEK 24 OF ADMINISTRATION, baseline median 16.0) of the same molecule?
Answer: The value was 4.0.

Question: What about the “VAS AVERAGE VALUE” ([3]; 100 mg administration group, WEEK 4 OF ADMINISTRATION, baseline average 24.6) of the same molecule?
Answer: Its value is 15.8.

Question: And the “VAS MEDIAN VALUE” ([3]; 100 mg administration group, WEEK 4 OF ADMINISTRATION, baseline median 20.0)?
Answer: The value was 2.0.

Question: And the “VAS AVERAGE VALUE” ([3]; 100 mg administration group, WEEK 12 OF ADMINISTRATION, baseline average 24.6)?
Answer: Its value is 15.7.

Question: What about the “VAS MEDIAN VALUE” ([3]; 100 mg administration group, WEEK 12 OF ADMINISTRATION, baseline median 20.0) of the same molecule?
Answer: The value was 2.0.

Question: What about the “VAS AVERAGE VALUE” ([3]; 100 mg administration group, WEEK 24 OF ADMINISTRATION, baseline average 24.6) of the same molecule?
Answer: Its value is 12.4.

Question: What about the “VAS MEDIAN VALUE” ([3]; 100 mg administration group, WEEK 24 OF ADMINISTRATION, baseline median 20.0) of the same molecule?
Answer: The value was 8.0.

Question: What about the “average values and median values of the VAS after the treatment” value ([3]; both the 50 mg administration group and the 100 mg administration group, versus baseline) of the same molecule?
Answer: The value was “reduced”.

Question: What about the Hyperglycemia side effect [4] of the same molecule?
Answer: Its Hyperglycemia side effect is “no subject exhibited an event that was diagnosed as hyperglycemia”.

Question: With `CO[C@H]1C[C@@H]2CC[C@@H](C)[C@@](O)(O2)C(=O)C(=O)N2CCCC[C@H]2C(=O)O[C@H]([C@H](C)C[C@@H]2CC[C@@H](O)[C@H](OC)C2)CC(=O)[C@H](C)/C=C(\C)[C@@H](O)[C@@H](OC)C(=O)[C@H](C)C[C@H](C)/C=C/C=C/C=C/1C` [Sirolimus, sirolimus] as the molecule, how does the known side effects [1] read?
Answer: The known side effects was “immunosuppression, hyperglycemia (unknown frequency)”.
